Experimental data reported in patent publication US10098964B2, “Inclusion complexes and methods for making the same” (The Board of Trustees of the University of Illinois, priority 2015, dated 2018).

Tests used:
[1] = In-vitro fermentation (large intestine): butyrate produced; format: in vitro ADME
[2] = cited from earlier work

CCCC(=O)OCC(COC(=O)CCC)OC(=O)CCC [Tributyrin, 1,3-di(butanoyloxy)propan-2-yl butanoate]
Butyrate produced, 4 hr ([1]; fermentation 4 hr, representative of ascending large intestine): 106389.69 µg/g (DMB) | Butyrate produced, 8 hr ([1]; fermentation 8 hr, representative of transverse large intestine): 164605.74 µg/g (DMB) | Butyrate produced, 12 hr ([1]; fermentation 12 hr, representative of descending large intestine): 134093.05 µg/g (DMB)

CCCC(=O)O [butyrate, butyric acid]
half-life in human plasma [2]: < 6 min
